ChEMBL document CHEMBL4431353, “Optimization of a Series of Bivalent Triazolopyridazine Based Bromodomain and Extraterminal Inhibitors: The Discovery of (3R)-4-[2-[4-[1-(3-Methoxy-[1,2,4]triazolo[4,3-b]pyridazin-6-yl)-4-piperidyl]phenoxy]ethyl]-1,3-dimethyl-piperazin-2-one (AZD5153)” (J Med Chem, 2016)
Converted amounts (≈) assume the structure as drawn.

Legend:
[1] = Intrinsic clearance in human hepatocytes assessed per million cells; format: ADME, cell-based, Hepatocyte; conditions: read-out: CLH
[2] = target: Bromodomain-containing protein 4 (Homo sapiens, UniProt O60885, N140A)
[3] = tested on: MM1.S; test: Growth inhibition of human MM1S cells after 72 hrs by alamar blue assay; format: functional
[4] = target: T1, Bromodomain-containing protein 4 (Homo sapiens, UniProt O60885); test: Displacement of Alexa647-labeled JQ1 derivative from wild type BRD4 tandem domain (44 to 460 residues) (unknown origin) incubated for 1 hr by fluorescence polarization assay
[5] = target: T1, Bromodomain-containing protein 4; test: Inhibition of BRD4 in human MM1S cells assessed as down regulation of c-Myc incubated for 16 hrs by flow cytometry; format: cell-based
[6] = Lipophilicity, log D of compound at pH 7.4; format: physicochemical; conditions: buffer
[7] = target: T1, Bromodomain-containing protein 4; test: Inhibition of BRD4 in human MCF7 cells assessed as down regulation of ERalpha after 18 to 24 hrs by Hoechst staining based cellomics arrayscan analysis; format: cell-based
[8] = Thermodynamic solubility of compound in pH 7.4 solution; format: physicochemical; conditions: buffer, read-out: Therm_solubility
[9] = target: Bromodomain-containing protein 4 (Homo sapiens, UniProt O60885, N433A)
[10] = Oral bioavailability in dog; format: ADME, organism-based, Canis lupus familiaris; conditions: in vivo
[11] = Plasma clearance in rat; format: ADME
[12] = Volume of distribution at steady state in dog; format: ADME, Canis lupus familiaris; conditions: in vivo, read-out: Vdss
[13] = Dissociation constant, basic pKa of compound; format: physicochemical
[14] = Unbound fraction in dog plasma; format: ADME, cell-free, Canis lupus familiaris
[15] = Intrinsic clearance in dog hepatocytes assessed per million cells; format: ADME, cell-based, Canis lupus familiaris, Hepatocyte; conditions: read-out: CLH
[16] = Plasma clearance in dog; format: ADME, Canis lupus familiaris
[17] = Unbound fraction in human plasma; format: ADME, cell-free
[18] = Volume of distribution at steady state in rat; format: ADME; conditions: in vivo, read-out: Vdss
[19] = Oral bioavailability in rat; format: ADME, organism-based; conditions: in vivo
[20] = Unbound fraction in rat plasma; format: ADME, cell-free
[21] = Apparent permeability from apical to basolateral side in human Caco2 cells; format: ADME, cell-based; conditions: Caco-2
[22] = Intrinsic clearance in rat hepatocytes assessed per million cells; format: ADME, cell-based, Hepatocyte; conditions: read-out: CLH
[23] = target: T1, Bromodomain-containing protein 4; test: Inhibition of BRD4 in human LNCAP cells assessed as down regulation of nuclear AR level by immunofluorescence assay; format: cell-based

Structure (SMILES) | hepatocyte CLint [1] | Ki [2] | GI50 [3] | Ki [4] | IC50 [5] | logD [6] | IC50 [7] | solubility thermodynamic [8] | Ki [9] | IC50 [23] | also measured
Cc1nnc2ccc(N3CCC(c4ccc(OCCN5CCN(C)C(=O)[C@H]5C)cc4)CC3)nn12 | 7.2 µL/min/1e6 cells | 200 nM | 5.01 nM | 15.8 nM | 25.1 nM | 2.4 | 39.8 nM | 670 µM (≈ 311 µg/mL) | 251 nM |  | 
COc1nnc2ccc(N3CCC(c4ccc(N5CCC(N6CCN(C)C(=O)[C@H]6C)CC5)cc4)CC3)nn12 | 2.7 µL/min/1e6 cells | 316 nM |  | 50.1 nM |  | 2 | 158 nM | 760 µM (≈ 394 µg/mL) | 158 nM |  | 
COc1nnc2ccc(N3CCC(c4ccc(OCCN5CCN(C)C(=O)[C@@H]5C)cc4)CC3)nn12 | < 1.4 µL/min/1e6 cells | 1000 nM |  | 126 nM | 79.4 nM | 2.2 | 316 nM | 900 µM (≈ 432 µg/mL) | 251 nM |  | 
COc1nnc2ccc(N3CCC(c4ccc(CCN5CCN(C)C(=O)[C@H]5C)cc4)CC3)nn12 | 2 to 2.2 µL/min/1e6 cells | 126 nM | 5.01 nM | 3.16 nM | 10 nM | 2.5 | 25.1 nM | 280 to 570 µM (≈ 130 to 264 µg/mL) | 100 nM |  | bioavailability [10]: 98%; clearance [11]: 3 mL/min/kg; Vd [12]: 0.9 L/kg; pKa [13]: 6.3; fraction unbound [14]: 0.24; hepatocyte CLint [15]: < 1 µL/min/1e6 cells; clearance [16]: 3 mL/min/kg; fraction unbound [17]: 0.25; Vd [18]: 0.7 L/kg; bioavailability [19]: 72%; fraction unbound [20]: 0.02; Papp A→B [21]: 28 ×10⁻⁶ cm/s; hepatocyte CLint [22]: < 1 µL/min/1e6 cells
C[C@@H]1C(=O)N(C)CCN1CCOc1ccc(C2CCN(c3ccc4nnc(C(F)(F)F)n4n3)CC2)cc1 | 70 µL/min/1e6 cells | 63.1 nM | 5.01 nM | 7.94 nM | 10 nM | 3.3 to 4.2 | 25.1 nM | 63 µM (≈ 32.6 µg/mL) | 398 nM | 39.8 nM | 
COc1nnc2ccc(N3CCC(c4ccc(N5CC(CN6CCN(C)C(=O)[C@H]6C)C5)cc4)CC3)nn12 | 4 to 4.1 µL/min/1e6 cells | 100 nM | 1.58 nM | 10 nM | < 2 nM | 1.7 | 3.98 nM | 460 to 1000 µM (≈ 232 to 505 µg/mL) | 158 nM |  | bioavailability [10]: 73%; clearance [11]: 7 mL/min/kg; Vd [12]: 0.7 L/kg; pKa [13]: 5.9; fraction unbound [14]: 0.27; hepatocyte CLint [15]: 3 µL/min/1e6 cells; clearance [16]: 5 mL/min/kg; fraction unbound [17]: 0.32; Vd [18]: 1.61 L/kg; bioavailability [19]: 57%; fraction unbound [20]: 0.05; Papp A→B [21]: 46 ×10⁻⁶ cm/s; hepatocyte CLint [22]: < 1 µL/min/1e6 cells
COc1nnc2ccc(N3CCC(c4ccc(OCCN5[C@H](C)CN(C)C(=O)[C@H]5C)cc4)CC3)nn12 | 80 µL/min/1e6 cells | 251 nM | 6.31 nM | 7.94 nM | 12.6 nM | 2.3 | 20 nM | 750 µM (≈ 370 µg/mL) | 126 nM |  | 
COc1nnc2ccc(N3CCC(c4ccc(OCCN5C[C@@H](C)N(C(C)=O)[C@@H](C)C5)cc4)CC3)nn12 | 48 µL/min/1e6 cells | 158 nM |  | 5.01 nM |  | 3.4 | 39.8 nM | 280 µM (≈ 142 µg/mL) | 50.1 nM |  | 
COc1nnc2ccc(N3CCC(c4ccc(N5CC(N6CCN(C)C(=O)[C@H]6C)C5)cc4)CC3)nn12 | < 1.2 µL/min/1e6 cells | 398 nM |  | 63.1 nM |  | 1.7 | 794 nM | 870 µM (≈ 427 µg/mL) | 200 nM |  | 
COc1nnc2ccc(N3CCC(c4ccc(OCCCN5CCN(C)C(=O)[C@H]5C)cc4)CC3)nn12 | 5.1 µL/min/1e6 cells | 63.1 nM | < 1.58 nM | 3.98 nM | 3.16 nM | 2.4 | 20 nM | > 1000 µM | 79.4 nM |  | 
CSc1nnc2ccc(N3CCC(c4ccc(OCCN5CCN(C)C(=O)[C@H]5C)cc4)CC3)nn12 | 21 µL/min/1e6 cells | 126 nM |  | 12.6 nM | 20 nM | 2.9 | 31.6 nM | 660 µM (≈ 327 µg/mL) | 158 nM | 25.1 nM | 
C[C@@H]1C(=O)N(C)CCN1CCOc1ccc(C2CCN(c3ccc4nnc(N(C)C)n4n3)CC2)cc1 | 4 to 4.4 µL/min/1e6 cells | 316 nM | 3.16 nM | 12.6 nM | 15.8 nM | 2.4 | 63.1 nM | 1600 to 1680 µM (≈ 788 to 828 µg/mL) | 316 nM | 25.1 nM | clearance [11]: 6 mL/min/kg; fraction unbound [14]: 0.09; hepatocyte CLint [15]: 18 µL/min/1e6 cells; fraction unbound [17]: 0.16; Vd [18]: 0.4 L/kg; bioavailability [19]: 42%; fraction unbound [20]: 0.04; hepatocyte CLint [22]: 13 µL/min/1e6 cells
C[C@@H]1C(=O)N(C)CCN1CCOc1ccc(C2CCN(c3ccc4nnc(Cl)n4n3)CC2)cc1 | 24 µL/min/1e6 cells | 316 nM | 19.9 nM | 12.6 nM | 79.4 nM | 3.1 | 39.8 nM | 63 µM (≈ 30.5 µg/mL) | 200 nM | 25.1 nM | 
C[C@@H]1C(=O)N(C)CCN1CCOc1ccc(C2CCN(c3ccc4nncn4n3)CC2)cc1 | 180 µL/min/1e6 cells | 2510 nM |  | > 1000 nM | 1260 nM | 1.9 | > 3160 nM | 1000 µM (≈ 450 µg/mL) | 6310 nM | 1580 nM | 
CN1CCN(CCOc2ccc(C3CCN(c4ccc5nnc(C(F)(F)F)n5n4)CC3)cc2)C(=O)C1 | 26 µL/min/1e6 cells | 7940 nM |  | 2510 nM |  | 3.1 | 1000 nM | 52 µM (≈ 26.2 µg/mL) | 398 nM |  | 
CN1CCN(CCOc2ccc(C3CCN(c4ccc5nnc(C(F)(F)F)n5n4)CC3)cc2)CC1=O | 18 µL/min/1e6 cells | 1000 nM |  | 200 nM |  | 3 | 501 nM | 65 µM (≈ 32.7 µg/mL) | 316 nM | 316 nM | 
COc1nnc2ccc(N3CCC(c4ccc(OCCN5[C@H](C)CN(C(C)=O)C[C@@H]5C)cc4)CC3)nn12 | 12 µL/min/1e6 cells | 15.8 nM | < 2 nM | 1.58 nM | < 2 nM | 2.5 | 1.58 nM | > 1000 µM | 50.1 nM |  | bioavailability [10]: 28%; clearance [11]: 17 mL/min/kg; Vd [12]: 0.6 L/kg; pKa [13]: 6.2; fraction unbound [14]: 0.16; hepatocyte CLint [15]: 7 µL/min/1e6 cells; clearance [16]: 11 mL/min/kg; fraction unbound [17]: 0.19; Vd [18]: 1.5 L/kg; bioavailability [19]: 40%; fraction unbound [20]: 0.06; Papp A→B [21]: 30 ×10⁻⁶ cm/s; hepatocyte CLint [22]: 13 µL/min/1e6 cells
COc1nnc2ccc(N3CCC(c4ccc(OCCCCN5CCN(C)C(=O)[C@H]5C)cc4)CC3)nn12 | 12 µL/min/1e6 cells | 100 nM |  | 6.31 nM |  | 2.8 | 20 nM | 470 µM (≈ 239 µg/mL) | 63.1 nM |  | 
